{"source": "patent US20040092561A1", "about": "“Azolidinone-vinyl fused -benzene derivatives” (priority 2002, published 2004)", "key": {"PI3Kγ": {"target": "PI3Kγ (Homo sapiens, UniProt P48736)", "sequence (P48736 whole entry)": "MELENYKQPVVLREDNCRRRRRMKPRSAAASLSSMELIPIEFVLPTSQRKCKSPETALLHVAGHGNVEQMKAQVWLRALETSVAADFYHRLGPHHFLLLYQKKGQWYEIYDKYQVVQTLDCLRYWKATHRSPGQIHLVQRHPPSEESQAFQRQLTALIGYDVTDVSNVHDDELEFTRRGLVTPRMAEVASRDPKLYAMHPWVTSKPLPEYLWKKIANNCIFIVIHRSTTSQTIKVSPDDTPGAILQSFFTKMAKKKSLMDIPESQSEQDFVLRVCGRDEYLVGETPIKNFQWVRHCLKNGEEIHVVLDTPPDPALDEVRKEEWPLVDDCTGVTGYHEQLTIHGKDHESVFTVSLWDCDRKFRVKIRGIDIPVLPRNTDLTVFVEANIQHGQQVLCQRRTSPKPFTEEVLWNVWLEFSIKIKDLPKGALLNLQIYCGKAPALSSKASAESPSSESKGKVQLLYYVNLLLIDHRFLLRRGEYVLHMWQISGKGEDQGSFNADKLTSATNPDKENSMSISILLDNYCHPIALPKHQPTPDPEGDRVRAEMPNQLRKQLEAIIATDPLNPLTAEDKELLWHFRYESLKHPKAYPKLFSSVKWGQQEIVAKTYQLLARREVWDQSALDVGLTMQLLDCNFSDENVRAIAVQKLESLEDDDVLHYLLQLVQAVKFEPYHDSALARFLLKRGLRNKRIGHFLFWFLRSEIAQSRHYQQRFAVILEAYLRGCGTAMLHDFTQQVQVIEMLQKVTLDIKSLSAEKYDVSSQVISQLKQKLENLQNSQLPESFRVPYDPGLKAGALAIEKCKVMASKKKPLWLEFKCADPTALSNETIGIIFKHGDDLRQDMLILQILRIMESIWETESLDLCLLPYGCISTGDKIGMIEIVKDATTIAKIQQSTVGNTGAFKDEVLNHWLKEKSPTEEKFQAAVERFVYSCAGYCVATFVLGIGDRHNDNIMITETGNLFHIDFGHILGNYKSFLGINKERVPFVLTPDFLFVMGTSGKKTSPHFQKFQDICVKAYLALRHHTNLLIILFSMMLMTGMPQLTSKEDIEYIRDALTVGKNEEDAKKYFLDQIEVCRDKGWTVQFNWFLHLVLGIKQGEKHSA", "experiment": "High Throughput PI3K Lipid Kinase Assay (Binding Assay), SPA with neomycin-coated beads", "type": "biochemical", "conditions": "Human recombinant GST-PI3Kγ; [33P]γ-ATP; 180 minutes, room temperature", "procedure": "a) High Throughput PI3K Lipid Kinase Assay (Binding Assay)\nThe assay combines the scintillation proximity assay technology (SPA, Amersham) with the capacity of neomycin (a polycationic antibiotic) to bind phospholipids with high affinity and specificity. The Scintillation Proximity Assay is based on the properties of weakly emitting isotopes (such as ^3H, ^125I, ^33P). Coating SPA beads with neomycin allows the detection of phosphorylated lipid substrates after incubation with recombinant PI3K and radioactive ATP in the same well, by capturing the radioactive phospholipids to the SPA beads through their specific binding to neomycin.\nTo a 384 wells MTP containing 5 μl of a chemical compound library (containing 6% DMSO), the following assay components are added. 1) 5 μl (58 ng) of Human recombinant GST-PI3Kγ (in Hepes 40 mM, pH 7.4, DTT 1 mM and ethylenglycol 5%) 2) 10 μl of lipid micelles and 3) 10 μl of Kinase buffer ([^33P]γ-ATP 45 μM/60 nCi, MgCl2 30 mM, DTT 1 mM, P-Glycerophosphate 1 mM, NaVO4 100 μM, Na Cholate 0.3%, in Hepes 40 mM, pH 7.4). After incubation at room temperature for 180 minutes, with gentle agitation, the reaction is stopped by addition of 60 μl of a solution containing 100 μg of neomycin-coated PVT SPA beads in PBS containing ATP 10 mM and EDTA 5 mM. The assay is further incubated at room temperature for 60 minutes with gentle agitation to allow binding of phospholipids to neomycin-SPA beads. After precipitation of the neomycin-coated PVT SPA beads for 5 minutes at 1500×g, radioactive PtdIns(3)P is quantified by scintillation counting in a Wallac MicroBeta™ plate counter.\nThe values indicated in respect of PI3K γ refer to the IC50 (μM), i.e. the amount necessary to achieve 50% inhibition of said target. Said values show a considerable potency of the azolidinone-vinyl fused-benzene compounds with regard to PI3Kγ."}, "[1]": {"tested_on": "Akt/PKB phosphorylation in macrophages", "experiment": "Cell Based ELISA to Monitor PI3K Inhibition: Akt/PKB phosphorylation in Raw 264-7 macrophages after stimulation with C5a", "conditions": "Mus musculus, RAW264.7, 50 nM C5a, 5 minutes, 20 minutes pretreatment, read-out: inhibition of C5a-mediated AKT-phosphorylation", "procedure": "b) Cell Based ELISA to Monitor PI3K Inhibition\nMeasurement of Akt/PKB phosphorylation in macrophages after stimulation with C5a: Raw 264: Raw 264-7 macrophages (cultured in DMEM-F12 medium containing 10%\nFetal Calf serum and antibiotics) are plated at 20'000 cells/well in a 96 MTP 24 h before cell stimulation. Previous to the stimulation with 50 nM of Complement 5a during 5 minutes, Cells are serum starved for 2 h, and pretreated with inhibitors for 20 minutes. After stimulation cells are fixed in 4% formaldehyde for 20 minutes and washed 3 times in PBS containing 1% Triton X-100 (PBS/Triton). Endogenous peroxidase is blocked by a 20 minutes incubation in 0.6% H2O2 and 0.1% Sodium Azide in PBS/Triton and washed 3 times in PBS/Triton. Cells are then blocked by 60 minutes incubation with 10% fetal calf serum in PBS/Triton. Next, phosphorylated Akt/PKB is detected by an overnight incubation at 4° C. with first antibody (anti phospho Serine 473 Akt IHC, Cell Signaling) diluted 800-fold in PBS/Triton, containing 5% bovine serum albumin (BSA). After 3 washes in PBS/Triton, cells are incubated for 60 minutes with a peroxidase conjugated goat-anti-rabbit antibody ( 1/400 dilution in PBS/Triton, containing 5% BSA), washed 3 times in PBS/Triton, and 2 times in PBS and further incubated in 100 μl of substrate reagent solution (R&D) for 20 minutes. The reaction is stopped by addition of 50 μI of 1 M SO4H2 and absorbance is read at 450 nm.\nThe values indicated reflect the percentage of inhibition of AKT phoshorylation as compared to basal level. Said values show a clear effect of the azolidinone-vinyl fused-benzene compounds on the activation of AKT phosphorylation in macrophages."}}, "data": [{"smiles": "O=C1NC(=O)/C(=C/c2ccc3c(c2)OCO3)S1", "note": "[Example 1, (5Z)-5-(1,3-benzodioxol-5-ylmethylene)-1,3-thiazolidine-2,4-dione]", "values": [{"measurement": "IC50", "setting": "PI3Kγ", "result": 50, "unit": "nM"}, {"measurement": "inhibition at 10 µM", "setting": "[1]", "result": 80, "unit": "%"}]}, {"smiles": "O=C1NC(=S)S/C1=C/c1ccc2c(c1)OCO2", "note": "[Example 2, (5E)-5-(1,3-benzodioxol-5-ylmethylene)-2-thioxo-1,3-thiazolidin-4-one]", "values": [{"measurement": "IC50", "setting": "PI3Kγ", "result": 60, "unit": "nM"}, {"measurement": "inhibition at 10 µM", "setting": "[1]", "result": 80, "unit": "%"}]}, {"smiles": "O=C1NC(=O)/C(=C/c2ccc3c(c2)CCO3)S1", "note": "[Example 4, (5Z)-5-(2,3-dihydro-1-benzofuran-5-ylmethylene)-1,3-thiazolidine-2,4-dione]", "values": [{"measurement": "inhibition at 10 µM", "setting": "[1]", "result": 80, "unit": "%"}]}, {"smiles": "CN1C(=O)COc2ccc(/C=C3\\SC(=O)NC3=O)cc21", "note": "[Example 10, (5Z)-5-[(4-methyl-3-oxo-3,4-dihydro-2H-1,4-benzoxazin-6-yl)methylene]-1,3-thiazolidine-2,4-dione]", "values": [{"measurement": "IC50", "setting": "PI3Kγ", "result": 30, "unit": "nM"}]}]}
